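Where inhibition never reached the appropriate level, the endpoint shown equals the highest concentration tested. Otherwise, values were interpolated linearly from a five-concentration, 48-hour dose response in 96-well plates. GI50 = concentration required for 50% inhibition of growth.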 Active and inactive are the calls of the source. Rule as the data show it: active = GI50 up to about 1.1 µM and inactive = higher.
How the values were obtained:
Assay in all cases: DTP human tumour cell line panel, 48 h
786-0 = tested on: 786-0
A498 = tested on: A498
A549 = tested on: A549
ACHN = tested on: ACHN
CCRF-CEM = tested on: CCRF-CEM
COLO 205 = tested on: COLO 205
DLD-1 = tested on: DLD-1
DMS-114 = tested on: DMS-114
DMS-273 = tested on: DMS-273
EKVX = tested on: EKVX
HCC 2998 = tested on: HCC 2998
HCT-116 = tested on: HCT-116
HCT-15 = tested on: HCT-15
HOP-18 = tested on: HOP-18
HOP-62 = tested on: HOP-62
HOP-92 = tested on: HOP-92
HT-29 = tested on: HT-29
IGROV-1 = tested on: IGROV-1
K562 = tested on: K562
KM-20L2 = tested on: KM-20L2
KM12 = tested on: KM12
LOX IMVI = tested on: LOX IMVI
LXFL 529 = tested on: LXFL 529
M14 = tested on: M14
M19-MEL = tested on: M19-MEL
MOLT-4 = tested on: MOLT-4
Malme-3M = tested on: Malme-3M
NCI-H226 = tested on: NCI-H226
NCI-H23 = tested on: NCI-H23
NCI-H460 = tested on: NCI-H460
NCI-H522 = tested on: NCI-H522
OVCAR-3 = tested on: OVCAR-3
OVCAR-4 = tested on: OVCAR-4
OVCAR-5 = tested on: OVCAR-5
OVCAR-8 = tested on: OVCAR-8
RXF 393 = tested on: RXF 393
RXF 631 = tested on: RXF 631
SF-268 = tested on: SF-268
SF-295 = tested on: SF-295
SF-539 = tested on: SF-539
SK-MEL-28 = tested on: SK-MEL-28
SK-MEL-2 = tested on: SK-MEL-2
SK-MEL-5 = tested on: SK-MEL-5
SK-OV-3 = tested on: SK-OV-3
SN12C = tested on: SN12C
SNB-19 = tested on: SNB-19
SNB-75 = tested on: SNB-75
SNB-78 = tested on: SNB-78
SW-620 = tested on: SW-620
TK-10 = tested on: TK-10
U-251 = tested on: U-251
UACC-257 = tested on: UACC-257
UACC-62 = tested on: UACC-62
UO-31 = tested on: UO-31
XF498 = tested on: XF498
CAKI-1 = tested on: CAKI-1
HL-60 = tested on: HL-60
RPMI-8226 = tested on: RPMI-8226
SR = tested on: SR

N#CC(C(=O)/C(=N/NC(=O)c1ccccc1O)C(C#N)c1ccc(Br)cc1)c1ccc(Br)cc1 (centres undefined)
GI50 (786-0): 12.7 µM (inactive) | GI50 (A498): 13.7 µM (inactive) | GI50 (A549): 14.2 µM (inactive) | GI50 (ACHN): 13.7 µM (inactive) | GI50 (CCRF-CEM): 2.23 µM (inactive) | GI50 (COLO 205): 16.5 µM (inactive) | GI50 (DLD-1): 4.79 µM (inactive) | GI50 (DMS-114): 15.7 µM (inactive) | GI50 (DMS-273): 13.4 µM (inactive) | GI50 (EKVX): 15.6 µM (inactive) | GI50 (HCC 2998): 12.1 µM (inactive) | GI50 (HCT-116): 12.9 µM (inactive) | GI50 (HCT-15): 9.08 µM | GI50 (HOP-18): 8.41 µM (inactive) | GI50 (HOP-62): 14.4 µM (inactive) | GI50 (HOP-92): 16.7 µM (inactive) | GI50 (HT-29): 13.3 µM (inactive) | GI50 (IGROV-1): 15.7 µM (inactive) | GI50 (K562): 5.74 µM (inactive) | GI50 (KM-20L2): 15.4 µM (inactive) | GI50 (KM12): 12.9 µM (inactive) | GI50 (LOX IMVI): 7.82 µM (inactive) | GI50 (LXFL 529): 3.32 µM (inactive) | GI50 (M14): 14.3 µM (inactive) | GI50 (M19-MEL): 11.7 µM (inactive) | GI50 (MOLT-4): 3.93 µM (inactive) | GI50 (Malme-3M): 11.9 µM (inactive) | GI50 (NCI-H226): 5.52 µM (inactive) | GI50 (NCI-H23): 4.74 µM (inactive) | GI50 (NCI-H460): 14.2 µM (inactive) | GI50 (NCI-H522): 11.4 µM (inactive) | GI50 (OVCAR-3): 13.5 µM (inactive) | GI50 (OVCAR-4): 15.6 µM (inactive) | GI50 (OVCAR-5): 15.7 µM (inactive) | GI50 (OVCAR-8): 6.43 µM (inactive) | GI50 (RXF 393): 4.71 µM (inactive) | GI50 (RXF 631): 14.1 µM (inactive) | GI50 (SF-268): > 10 µM (inactive) | GI50 (SF-295): 14.5 µM (inactive) | GI50 (SF-539): 10.6 µM (inactive) | GI50 (SK-MEL-28): 13.8 µM (inactive) | GI50 (SK-MEL-2): 12.2 µM (inactive) | GI50 (SK-MEL-5): 9.55 µM (inactive) | GI50 (SK-OV-3): 36.8 µM (inactive) | GI50 (SN12C): 9.12 µM (inactive) | GI50 (SNB-19): 11.6 µM (inactive) | GI50 (SNB-75): 2.99 µM (inactive) | GI50 (SNB-78): 4.75 µM (inactive) | GI50 (SW-620): 4.02 µM (inactive) | GI50 (TK-10): 24.4 µM (inactive) | GI50 (U-251): 11.6 µM (inactive) | GI50 (UACC-257): 15.1 µM (inactive) | GI50 (UACC-62): 6.71 µM (inactive) | GI50 (UO-31): 13.3 µM (inactive) | GI50 (XF498): 13.7 µM (inactive)

COc1cc2c(cn1)[nH]c1ccccc12
GI50 (786-0): > 100 µM (inactive) | GI50 (A549): > 100 µM (inactive) | GI50 (ACHN): > 100 µM (inactive) | GI50 (CAKI-1): 94.2 µM (inactive) | GI50 (CCRF-CEM): > 100 µM (inactive) | GI50 (COLO 205): > 100 µM (inactive) | GI50 (DLD-1): > 100 µM (inactive) | GI50 (DMS-114): 81.5 µM (inactive) | GI50 (DMS-273): > 100 µM (inactive) | GI50 (EKVX): > 100 µM (inactive) | GI50 (HCC 2998): > 100 µM (inactive) | GI50 (HCT-116): > 100 µM (inactive) | GI50 (HCT-15): > 100 µM | GI50 (HL-60): > 100 µM (inactive) | GI50 (HOP-18): > 100 µM (inactive) | GI50 (HOP-62): > 100 µM (inactive) | GI50 (HOP-92): > 100 µM (inactive) | GI50 (HT-29): > 100 µM (inactive) | GI50 (IGROV-1): > 100 µM (inactive) | GI50 (K562): > 100 µM (inactive) | GI50 (KM-20L2): > 100 µM (inactive) | GI50 (KM12): > 100 µM (inactive) | GI50 (LOX IMVI): > 100 µM (inactive) | GI50 (LXFL 529): 72.3 µM (inactive) | GI50 (M14): > 100 µM (inactive) | GI50 (MOLT-4): > 100 µM (inactive) | GI50 (Malme-3M): > 100 µM (inactive) | GI50 (NCI-H226): > 100 µM (inactive) | GI50 (NCI-H23): > 100 µM (inactive) | GI50 (NCI-H460): > 100 µM (inactive) | GI50 (NCI-H522): 61.2 µM (inactive) | GI50 (OVCAR-3): > 100 µM (inactive) | GI50 (OVCAR-4): > 100 µM (inactive) | GI50 (OVCAR-5): > 100 µM (inactive) | GI50 (OVCAR-8): > 100 µM (inactive) | GI50 (RPMI-8226): > 100 µM (inactive) | GI50 (RXF 631): > 100 µM (inactive) | GI50 (SF-268): 88.1 µM (inactive) | GI50 (SF-295): > 100 µM (inactive) | GI50 (SF-539): > 100 µM (inactive) | GI50 (SK-MEL-28): 67.5 µM (inactive) | GI50 (SK-MEL-2): > 100 µM (inactive) | GI50 (SK-MEL-5): 47.4 µM (inactive) | GI50 (SK-OV-3): > 100 µM (inactive) | GI50 (SN12C): > 100 µM (inactive) | GI50 (SNB-19): > 100 µM (inactive) | GI50 (SNB-75): 55.8 µM (inactive) | GI50 (SNB-78): 59.3 µM (inactive) | GI50 (SR): > 100 µM (inactive) | GI50 (SW-620): 46.3 µM (inactive) | GI50 (TK-10): > 100 µM (inactive) | GI50 (U-251): > 100 µM (inactive) | GI50 (UACC-257): 85.1 µM (inactive) | GI50 (UACC-62): 53 µM (inactive) | GI50 (UO-31): > 100 µM (inactive) | GI50 (XF498): 35.8 µM (inactive)

COc1cc(CCc2ccc(N)cc2)cc(OC)c1OC
GI50 (786-0): > 92.7 µM (inactive) | GI50 (A498): 56.1 µM (inactive) | GI50 (A549): 51.6 µM (inactive) | GI50 (ACHN): > 100 µM (inactive) | GI50 (CAKI-1): 67.8 µM (inactive) | GI50 (CCRF-CEM): 49.4 µM (inactive) | GI50 (COLO 205): 18.9 µM (inactive) | GI50 (DLD-1): > 100 µM (inactive) | GI50 (DMS-114): 34.3 µM (inactive) | GI50 (DMS-273): 37.9 µM (inactive) | GI50 (EKVX): > 66.5 µM (inactive) | GI50 (HCC 2998): > 47.8 µM (inactive) | GI50 (HCT-116): 50.9 µM (inactive) | GI50 (HCT-15): 43.4 µM | GI50 (HL-60): > 48 µM (inactive) | GI50 (HOP-18): > 71 µM (inactive) | GI50 (HOP-62): > 42.7 µM (inactive) | GI50 (HOP-92): 35.4 µM (inactive) | GI50 (HT-29): 41.5 µM (inactive) | GI50 (IGROV-1): > 86.9 µM (inactive) | GI50 (K562): 46.1 µM (inactive) | GI50 (KM-20L2): 44.2 µM (inactive) | GI50 (KM12): 18.7 µM (inactive) | GI50 (LOX IMVI): 61 µM (inactive) | GI50 (LXFL 529): 59 µM (inactive) | GI50 (M14): 54.6 µM (inactive) | GI50 (M19-MEL): 55.8 µM (inactive) | GI50 (MOLT-4): 36.9 µM (inactive) | GI50 (Malme-3M): 28.2 µM (inactive) | GI50 (NCI-H226): > 76.2 µM (inactive) | GI50 (NCI-H23): 92.3 µM (inactive) | GI50 (NCI-H460): 55.1 µM (inactive) | GI50 (NCI-H522): 31.5 µM (inactive) | GI50 (OVCAR-3): 41.1 µM (inactive) | GI50 (OVCAR-4): 63.5 µM (inactive) | GI50 (OVCAR-5): > 100 µM (inactive) | GI50 (OVCAR-8): > 75.9 µM (inactive) | GI50 (RPMI-8226): 64.6 µM (inactive) | GI50 (RXF 393): 50.9 µM (inactive) | GI50 (RXF 631): > 58.1 µM (inactive) | GI50 (SF-268): > 69.3 µM (inactive) | GI50 (SF-295): 12.2 µM (inactive) | GI50 (SF-539): 26.1 µM (inactive) | GI50 (SK-MEL-28): 46 µM (inactive) | GI50 (SK-MEL-2): 27.8 µM (inactive) | GI50 (SK-MEL-5): 29.4 µM (inactive) | GI50 (SK-OV-3): > 91.4 µM (inactive) | GI50 (SN12C): > 54.8 µM (inactive) | GI50 (SNB-19): > 100 µM (inactive) | GI50 (SNB-75): > 56 µM (inactive) | GI50 (SNB-78): 39.1 µM (inactive) | GI50 (SW-620): 45.5 µM (inactive) | GI50 (TK-10): > 74.3 µM (inactive) | GI50 (U-251): > 53.2 µM (inactive) | GI50 (UACC-257): > 94.4 µM (inactive) | GI50 (UACC-62): 38.7 µM (inactive) | GI50 (UO-31): > 45.3 µM (inactive) | GI50 (XF498): 64.6 µM (inactive)
